Results from patent publication US20250381307A1, “RETRO-AAV AND USE IN TREATING NEURODEGENERATIVE DISEASES” (priority 2023, published 2025).

Columns and labels:
hM3Dq = hM3Dq (Homo sapiens, UniProt P20309, A239G/Y149C); assay: Rotation behavior and nigral c-Fos in mice after unilateral nigral AAV8R12-G88P3-HA-hM3Dq and CNO; type: in vivo, C57BL/6J mice; design: host or cells: AAV8R12-transduced neurons (striatal D1-MSNs, some SNr neurons) of mice and macaques; details: for rotation behavior (FIG. 6C): control vector AAV8R12-G88P3-EYFP, n=5
Procedure: Mice were anesthetized with sodium pentobarbital (Nembutal; 80 mg/kg, i.p.), and then placed into a stereotaxic device (KOPF). Eye cream was applied on both corneas to avoid dehydration. The skull above the targeted areas was thinned with a dental drill and carefully removed. Injections were conducted with a 10 μL syringe connected to a 33-Gauge needle (Neuros; Hamilton), using a microsyringe pump (Legato 130, KD Scientific). A total volume of 200 nL virus was injected into the SNr at a speed of 20 nL/min. The coordinates for the SNr were 3.4 mm posterior, 1.3 mm lateral, 4.8 mm ventral to the bregma.
Mice that were used in the behavioral experiments were then implanted with guide cannulas (KOPF) unilaterally aiming at the dorsomedial striatum (0.5 mm anterior, 1.5 mm lateral, 3.5 mm ventral to the bregma). The cannulas were fixed to the skull with dental cement. Stainless steel obturators were inserted into the guide cannulas and were replaced every other day to maintain the patency until infusions were made. Mice were allowed to recover from the surgery for at least 3 weeks before further studies.
Mice were individually handled for 10-20 seconds per day for at least 5 days to habituate them to the experimenter. The open field test was conducted in a test apparatus (50 cm×50 cm×50 cm) with an HD digital camera (Sony) positioned above the arena. On day one, mice were habituated to the apparatus for 10 minutes. On day 2, mice were administrated saline (0.1 mL i.p. or 200 nL intracranially [i.e.] through the guide cannulas). On day 3, mice were administrated with Clozapine-N-oxide (CNO, Hello Bio, HB1807; 0.3 mg/kg i.p. or 200 nL at 100 μM i.e.). All behavioral tests were conducted 30 minutes after injection. During the test, mice were allowed to freely explore the apparatus for 10 minutes. The behavioral data were analyzed with ANY-maze software (Stoelting Co.).

rM3Ds = molecular target: T1, rM3Ds (Rattus norvegicus, UniProt P08483, A177S/A238G/A489L/DEL261-437/DEL441-478/E258S/I253V/I483M/INS256[…]/K178L/K182A/K255R/K484R/K486H/L173F/L482A/M480V/R171S/R176Q/R179M/S481M/T174R/T181R/T257A/Y148C); assay: In vivo electrophysiological recording in caudate/putamen of MPP+ lesioned macaques; design: rM3Ds; 2A-EYFP (C); host or cells: AAV8R12-transduced striatal D1-MSNs of mice and cynomolgus macaques (in vivo and acute slices)
T1 sequence (P08483 with tags, fused parts or gaps Y148C/R171S/L173F/T174R/R176Q/A177S/K178L/R179M/T181R/K182A/A238G/I253V/K255R/INS256[…]/T257A/E258S/DEL261-437/DEL441-478/M480V/S481M/L482A/I483M/K484R/K486H/A489L): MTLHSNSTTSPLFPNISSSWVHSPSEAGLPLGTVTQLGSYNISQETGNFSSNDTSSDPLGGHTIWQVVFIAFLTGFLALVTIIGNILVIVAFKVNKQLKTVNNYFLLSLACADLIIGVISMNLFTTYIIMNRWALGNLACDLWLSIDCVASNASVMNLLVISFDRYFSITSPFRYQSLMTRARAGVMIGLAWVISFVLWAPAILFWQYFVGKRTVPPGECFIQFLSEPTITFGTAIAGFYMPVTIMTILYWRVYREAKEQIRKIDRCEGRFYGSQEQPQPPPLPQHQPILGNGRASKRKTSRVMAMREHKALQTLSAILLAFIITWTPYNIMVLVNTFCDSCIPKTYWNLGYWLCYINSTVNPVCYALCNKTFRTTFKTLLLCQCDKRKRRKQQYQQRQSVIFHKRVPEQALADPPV
Procedure: Electrophysiological recording was performed through a recording chamber while the monkey was anesthetized. Neural responses were recorded by a 16-channel linear probe (Plexon Inc, Uprobe) driven by a mechanical microdrive (Alpha Omega, FlexMT). Signals were passed through a head stage (Plexon Inc, HST/16V-G20 LN) and then split and filtered between 300 Hz and 5 kHz to identify spiking activity with an amplifier system (Plexon Inc, OmniPlex). Detected spikes were then sorted by commercially available software (Plexon Inc, Offline Sorter) for further analysis. To quantify the effect of CNO/DCZ injection, neural activity was recorded for 60 minutes following CNO/DCZ injection. The response time-course for each channel was obtained by counting the spikes within every 10-minute window and then normalizing to the maximal.
To determine the effect of CNO/DCZ injection on the direction of signal change, we performed Pearson correlation between neural responses and time using the ‘corr’ function in Matlab, which generates the correlation coefficient ‘r’ and significant level ‘p’. A neuron was considered to have “Increased” activity when r>0 and p<0.05; and considered to have “Decreased” activity when r<0 and p<0.05. Otherwise, neurons were considered to be “Unchanged” in their neural activities. The responses of all increased neurons were then averaged after being normalized by the maximal response (Crowe et al., 2014; Dai and Wang, 2018; Hirokawa et al., 2019) following CNO/DCZ injection, and then plotted as a function of time to generate the normalized population response.

Chain of hM3Dq (P20309 whole entry Y149C/A239G): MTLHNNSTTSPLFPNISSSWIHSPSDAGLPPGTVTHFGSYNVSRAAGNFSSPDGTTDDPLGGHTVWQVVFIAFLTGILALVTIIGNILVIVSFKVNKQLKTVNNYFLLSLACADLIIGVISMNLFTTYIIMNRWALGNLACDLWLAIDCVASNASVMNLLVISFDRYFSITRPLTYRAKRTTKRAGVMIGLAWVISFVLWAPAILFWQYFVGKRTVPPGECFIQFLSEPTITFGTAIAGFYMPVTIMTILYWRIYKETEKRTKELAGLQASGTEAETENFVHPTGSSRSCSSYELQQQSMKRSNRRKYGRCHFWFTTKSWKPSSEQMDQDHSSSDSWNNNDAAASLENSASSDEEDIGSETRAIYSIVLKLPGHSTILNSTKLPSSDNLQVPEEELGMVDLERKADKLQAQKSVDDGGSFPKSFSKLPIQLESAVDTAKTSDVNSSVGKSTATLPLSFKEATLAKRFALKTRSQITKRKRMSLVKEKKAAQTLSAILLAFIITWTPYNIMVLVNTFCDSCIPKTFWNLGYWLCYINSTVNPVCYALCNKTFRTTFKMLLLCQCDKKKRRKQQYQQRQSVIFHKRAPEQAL

Question: `C[N+]1([O-])CCN(C2=Nc3cc(Cl)ccc3Nc3ccccc32)CC1` [CNO, clozapine N-oxide] was tested. Which “rotations (FIG. 6A; ipsiversive rotations induced)” value (hM3Dq; CNO i.p., AAV8R12-G88P3-HA-hM3Dq, n=8 mice, mean±SEM, saline 45.25±4.128) did it give?
Answer: 87.84±4.666

Question: What about the “rotation behavior (FIG. 6C)” value (hM3Dq; CNO i.p., saline 47.08±10.5) of the same compound?
Answer: 44.72±10.89

Question: What about the “rotations (FIG. 6A; contraversive rotations induced)” value (hM3Dq; CNO intracranial into dorsomedial striatum, AAV8R12-G88P3-HA-hM3Dq, n=8, saline 49.63±5.879) of the same compound?
Answer: 15.08±3.435

Question: And the “nigral c-Fos+ cells” value (hM3Dq; CNO intracranial, hM3Dq)?
Answer: No significant changes in the number of nigral c-Fos+ cells

Question: And the “rotation behavior (FIG. 6C)” value (hM3Dq; CNO intracranial, saline 54.22±8.766)?
Answer: 61.39±5.774

Question: And the “c-Fos+ cells in the right SNr” value (hM3Dq; CNO intraperitoneal, hM3Dq)?
Answer: significant increase in c-Fos+ cells

Question: And the “caudate/putamen cells activated (FIG. 15G)” value (rM3Ds; CNO 36 cells, DCZ 31 cells, saline 17.9%)?
Answer: 52.8%

Question: What about the “caudate/putamen cells inactivated (FIG. 15G)” value (rM3Ds; saline 33.4%) of the same compound?
Answer: 13.9%

Question: And the “caudate/putamen cells unchanged (FIG. 15G)” value (rM3Ds; saline 48.7%)?
Answer: 33.3%
